Measured values from the NIST ThermoML archive (doi:10.1021/je100967k).

Experiment: xn = mol fraction of the nth substance listed
Conditions: 101 kPa, Liquid; for speed of sound: Pulse-echo method

CN1CCCC1=O [N-methylpyrrolidone] + O
Conditions	mass density, 303.15 K [kg/m3]	mass density, 313.15 K [kg/m3]	mass density, 323.15 K [kg/m3]	speed of sound, 313.15 K [m/s]	speed of sound, 323.15 K [m/s]	viscosity, 303.15 K [mPa·s]	viscosity, 313.15 K [mPa·s]	viscosity, 323.15 K [mPa·s]
x1 = 0.1	1023.58	1016.67	1009.4	1674	1651.4	2.372	1.75	1.348
x1 = 0.2	1038.47	1029.62	1020.59	1697	1661.6	3.958	2.749	2.065
x1 = 0.3001	1043.03	1033.55	1023.92	1674.3	1634.9	4.365	3.01	2.215
x1 = 0.3994	1042.22	1032.64	1022.94	1639.3	1599.4	3.959	2.89	2.161
x1 = 0.4997	1039.51	1030.02	1020.43	1604.6	1565.5	3.318	2.51	1.959
x1 = 0.6001	1035.8	1026.44	1016.99	1573.2	1534.1	2.71	2.153	1.706
x1 = 0.6997	1032.32	1023.08	1013.78	1546.8	1507.6	2.279	1.834	1.485
x1 = 0.7982	1029.36	1020.23	1011.06	1523.9	1485.4	1.969	1.641	1.361
x1 = 0.899	1026.41	1017.37	1008.3	1504.1	1466	1.705	1.46	1.242
x1 = 1	1023.95	1015.03	1006.1	1487.8	1450.2	1.553	1.324	1.146
